Reference: the supplement of paper PMC5908809

Experiments:
[1] = tested on: NK-YS (IL-2 2.5 ng/mL); experiment: percent inhibition of viability; higher = more inhibition; conditions: 72 h
[2] = tested on: DERL-7 (IL-2 2.5 ng/mL); experiment: as above; conditions: 72 h
[3] = tested on: normal primary NK cells, pool 1 (3 donors), resting (IL-2 0 ng/mL); experiment: as above; conditions: 72 h
[4] = tested on: KAI3 (IL-2 2.5 ng/mL); experiment: as above; conditions: 72 h
[5] = tested on: NKL (IL-2 2.5 ng/mL); experiment: as above; conditions: 72 h
[6] = tested on: NK-92 (IL-2 2.5 ng/mL); experiment: as above; conditions: 72 h
[7] = tested on: YT (IL-2 2.5 ng/mL); experiment: as above; conditions: 72 h
[8] = tested on: normal primary NK cells, pool 2 (3 donors) (IL-2 2.5 ng/mL); experiment: as above; conditions: 72 h
[9] = tested on: SNK-6 (IL-2 2.5 ng/mL); experiment: as above; conditions: 72 h
[10] = tested on: normal primary NK cells, pool 3 (3 donors) (IL-2 2.5 ng/mL); experiment: as above; conditions: 72 h
[11] = tested on: IMC-1 (IL-2 20 ng/mL); experiment: as above; conditions: 72 h
[12] = tested on: normal primary NK cells, pool 1 (3 donors) (IL-2 2.5 ng/mL); experiment: as above; conditions: 72 h
[13] = tested on: KHYG-1 (IL-2 2.5 ng/mL); experiment: as above; conditions: 72 h
[14] = tested on: normal NK cells expanded with K562-aAPC; experiment: drug sensitivity score (DSS) (DSS units); higher = more sensitive; extreme values may be limits of the assay; conditions: 72 h; IL-2 2.5 ng/mL
Method: (§1)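 Drug sensitivity and resistance testing on K562-aAPC-expanded normal NK cells: 5 concentrations (10-fold steps over a 10,000-fold range), 72 h at 37 °C, viability by CellTiter-Glo normalised to DMSO and benzethonium chloride controls; DSS from the fitted curve.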

[15] = tested on: normal NK cells expanded with K562-aAPC; experiment: percent inhibition of viability; higher = more inhibition; conditions: 72 h, IL-2 2.5 ng/mL
Method: as §1

[16] = tested on: NK-YS (IL-2 2.5 ng/mL); experiment: drug sensitivity score (DSS) (DSS units); higher = more sensitive; extreme values may be limits of the assay; conditions: 72 h
[17] = tested on: DERL-7 (IL-2 2.5 ng/mL); experiment: as above; conditions: 72 h
[18] = tested on: normal primary NK cells, pool 1 (3 donors), resting (IL-2 0 ng/mL); experiment: as above; conditions: 72 h
[19] = tested on: KAI3 (IL-2 2.5 ng/mL); experiment: as above; conditions: 72 h
[20] = tested on: NKL (IL-2 2.5 ng/mL); experiment: as above; conditions: 72 h
[21] = tested on: NK-92 (IL-2 2.5 ng/mL); experiment: as above; conditions: 72 h
[22] = tested on: YT (IL-2 2.5 ng/mL); experiment: as above; conditions: 72 h
[23] = tested on: normal primary NK cells, pool 2 (3 donors) (IL-2 2.5 ng/mL); experiment: as above; conditions: 72 h
[24] = tested on: SNK-6 (IL-2 2.5 ng/mL); experiment: as above; conditions: 72 h
[25] = tested on: normal primary NK cells, pool 3 (3 donors) (IL-2 2.5 ng/mL); experiment: as above; conditions: 72 h
[26] = tested on: IMC-1 (IL-2 20 ng/mL); experiment: as above; conditions: 72 h
[27] = tested on: normal primary NK cells, pool 1 (3 donors) (IL-2 2.5 ng/mL); experiment: as above; conditions: 72 h
[28] = tested on: KHYG-1 (IL-2 2.5 ng/mL); experiment: as above; conditions: 72 h

CCn1nnc2c(N3CCOCC3)nc(-c3ccc(NC(=O)Nc4ccc(C(=O)N5CCN(C)CC5)cc4)cc3)nc21 [PKI-402] (max concentration tested 2500 nM)
percent inhibition of viability [%]
Conditions | 0.25 nM | 2.5 nM | 25 nM | 250 nM | 2500 nM
[1] | -6.47 | -8.86 | 4.39 | 52 | 75.7
[2] | -1.72 | 1.39 | 10.1 | 79.5 | 93.8
[3] | -7.29 | 0.44 | 14.9 | 31.1 | 26.7
[4] | -2.89 | -4.76 | 8.59 | 55.9 | 67.9
[5] | -5.68 | -11.2 | 4.32 | 60 | 68.9
[6] | -19.1 | -16.8 | -1.05 | 13.1 | 63.7
[7] | -3.62 | -7.8 | 0.22 | 50.5 | 82.6
[8] | -8.91 | -3.82 | 2.65 | 17.3 | 38.4
[9] | -8.78 | -15.4 | -7.51 | 33.2 | 54.5
[10] | -10.9 | -4.56 | 0.88 | 11 | 34.4
[11] | -5.86 | -7.07 | -15 | -6.11 | 25.1
[12] | 1.41 | -3.9 | 19.1 | 28.9 | 48.2
[13] | -6.21 | -11 | -2.81 | 30.4 | 84.9
[15] | -5.93 | -8.28 | -5.99 | 11.4 | 51

Conditions | drug sensitivity score
[14] | 4.52
[16] | 10.6
[17] | 15.9
[18] | 7.08
[19] | 11.4
[20] | 11.6
[21] | 5.62
[22] | 10.6
[23] | 3.74
[24] | 6.93
[25] | 3.19
[26] | 0.69
[27] | 7.21
[28] | 8.93
